# Experimental data taken from PubChem BioAssay (NCI).
# Several values for one entry are separate records, joined by “and”; a condition that tells them apart may be missing. Equal values may be shown once.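 Grown in 96-well plates, cells were treated for 48 hours with each compound at five concentrations. Insufficient inhibition: endpoint recorded as highest concentration tested. GI50 marks 50% less growth. TGI: total growth inhibition.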
# Legend:
# Experiment in all cases: DTP human tumour cell line panel, 48 h
# SW-620 colon = tested on: SW-620 colon
# SK-MEL-28 melanoma = tested on: SK-MEL-28 melanoma
# SF-295 CNS = tested on: SF-295 CNS
# HT29 colon = tested on: HT29 colon
# OVCAR-5 ovarian = tested on: OVCAR-5 ovarian
# NCI-H226 lung = tested on: NCI-H226 lung
# OVCAR-3 ovarian = tested on: OVCAR-3 ovarian
# SF-268 CNS = tested on: SF-268 CNS
# RXF 393 renal = tested on: RXF 393 renal
# NCI/ADR-RES ovarian = tested on: NCI/ADR-RES ovarian
Compound,TGI (SW-620 colon) [µM],TGI (SK-MEL-28 melanoma) [µM],TGI (SF-295 CNS) [µM],TGI (HT29 colon),TGI (OVCAR-5 ovarian) [µM],TGI (NCI-H226 lung),TGI (OVCAR-3 ovarian),TGI (SF-268 CNS),TGI (RXF 393 renal),GI50 (SK-MEL-28 melanoma) [µM],GI50 (SF-295 CNS) [µM],GI50 (NCI/ADR-RES ovarian) [µM],TGI (NCI/ADR-RES ovarian) [µM],GI50 (OVCAR-5 ovarian) [µM],GI50 (NCI-H226 lung) [µM],GI50 (OVCAR-3 ovarian) [µM],GI50 (SF-268 CNS) [µM],GI50 (HT29 colon) [µM],GI50 (RXF 393 renal) [µM],GI50 (SW-620 colon) [µM]
C#CCC(N)(CO)C(=O)O (stereo not drawn),> 100,> 100,> 100,> 100 µM,> 100,> 100 µM,> 100 µM,> 100 µM,,,,,,,,,,,,
C=CCC1[C@@H](C(C)(C)C(C(C)=O)C(=O)C(=O)OC)OC(C(C)(C)C)N1C(=O)OC (stereo partly drawn),,> 100,> 100,> 100 µM,> 100,> 100 µM,> 100 µM,> 100 µM,> 100 µM,,,,,,,,,,,
Cc1ccccc1Nc1nc2c(s1)C(=O)c1ccccc1C2=O,6.65,27.7,32.9,40.7 µM,38,32.8 µM,5.31 µM,13 µM,19.3 µM,,,,,,,,,,,
COC1OC(C)C(OCc2ccccc2)C(OS(=O)(=O)c2ccc(C)cc2)C1OS(=O)(=O)c1ccc(C)cc1 (stereo not drawn),> 100,> 100,> 100,> 100 µM,> 100,> 100 µM,> 100 µM,> 100 µM,> 100 µM,,,,,,,,,,,
CCOC(=O)C(=O)Nc1ccccc1C(F)(F)F,> 100,> 100,> 100,> 100 µM,> 100,> 100 µM,> 100 µM,> 100 µM,> 100 µM,,,,,,,,,,,
CNC(SC)=C1C(=O)OC(C)(C)OC1=O,38.5,> 100,> 100,> 100 µM,> 100,> 100 µM,> 100 µM,> 100 µM,> 100 µM,,,,,,,,,,,
CSc1c(C)c(C)nn1-c1ccccc1,> 100,> 100,> 100,> 100 µM,> 100,,,> 100 µM,> 100 µM,,,,,,,,,,,
Cc1nnc(N/N=C(/C(=O)C(C#N)c2ccccc2)C(C#N)c2ccccc2)n1N (stereo not drawn),8.19,36.1,13.7,> 65.7 µM,> 57,> 61.7 µM,53.3 µM,> 61.3 µM,24.1 µM,,,,,,,,,,,
COc1c(Br)cc(Br)c(OC)c1-c1[nH]c(Br)c(Br)c1Br,21.7,20,17.4,18.3 µM,29,25.8 µM,14.3 µM,15.1 µM,6.01 µM,,,,,,,,,,,
NC(N)=NS(=O)(=O)c1ccc(NC(=O)c2cccc3c(Nc4ccc(S(N)(=O)=O)cc4)c4ccccc4nc23)cc1,> 100,> 100,> 100,> 100 µM,> 100,,> 100 µM,> 100 µM,> 100 µM,,,,,,,,,,,
O=c1c2c3c(sc2n2c(-c4cc(-c5ccccc5)nn4-c4ccccc4)nnc2n1Cc1ccccc1)CCCC3,,> 100,> 100,,> 100,> 100 µM,> 100 µM,> 100 µM,,> 100,> 100,> 100,> 100,> 100,> 100,> 100,> 100,,,
Cl[Si]1(Cl)Oc2ccccc2O[Si](Cl)(Cl)Oc2ccccc2O1,54.5,> 100,98.2,70.9 µM,> 100,> 100 µM,> 100 µM,> 100 µM,,,,,,,,,,,,
O=C/C(=C(/Cl)c1ccc(O)cc1)c1ccccc1,> 68,41.9,> 72.2,> 62.7 µM,> 100,> 100 µM,37.5 µM,77.8 µM,57.2 µM,,,,,,,,,,,
CCOC(=O)c1ccc(N[C@@H]2c3cc4c(cc3C(C3=CC(=O)C(=O)C(OC)=C3)[C@H]3C(=O)OCC32)OCO4)cc1 (stereo partly drawn),20.1,40.5,6.87,18.2 µM,36.1,,31.7 µM,10.4 µM,16.8 µM,,,,,,,,,,,
COC(=O)/C(C#N)=C1\CCC(C(=O)OC)N1C (stereo not drawn),,> 100,> 100,,,,> 100 µM,> 100 µM,> 100 µM,,,,,,,,,,,
Cc1ccc2nc3c(Cl)c(C)c(=O)cc-3sc2c1,> 100,> 100,> 100,> 100 µM,> 100,> 100 µM,> 100 µM,> 100 µM,> 100 µM,> 100,,,,73.7,60,50.2,43.6,> 100,,
c1ccc(Cn2cnc3ccc(-c4nc(-c5ccc6c(c5)ncn6C5CCCCC5)cn5ccnc45)cc32)cc1,,,,,,,5.8 µM,> 100 µM,,,,1.98,5.43,,,2.27,2.48,,,

Compound,TGI (SW-620 colon) [µM],TGI (SK-MEL-28 melanoma) [µM],TGI (SF-295 CNS) [µM],TGI (HT29 colon),TGI (OVCAR-5 ovarian) [µM],TGI (NCI-H226 lung),TGI (OVCAR-3 ovarian),TGI (SF-268 CNS),TGI (RXF 393 renal),GI50 (SK-MEL-28 melanoma) [µM],GI50 (SF-295 CNS) [µM],GI50 (NCI/ADR-RES ovarian) [µM],TGI (NCI/ADR-RES ovarian) [µM],GI50 (OVCAR-5 ovarian) [µM],GI50 (NCI-H226 lung) [µM],GI50 (OVCAR-3 ovarian) [µM],GI50 (SF-268 CNS) [µM],GI50 (HT29 colon) [µM],GI50 (RXF 393 renal) [µM],GI50 (SW-620 colon) [µM]
CC1(Cc2ccccc2)NC(=S)NC1=O (stereo not drawn),> 100,> 100,> 100,> 100 µM,> 100,> 100 µM,,> 100 µM,> 100 µM,,,,,,,,,,,
COc1cc2cnc3c4ccccc4ccc3c2cc1OC,> 100,> 100,> 100,> 100 µM,> 100,,> 100 µM,> 100 µM,,,,,,,,,,,,
CC1(C)OC2COC3(CNO)OC(C)(C)OC3C2O1 (stereo not drawn),> 100,> 100,> 100,> 100 µM,> 100,> 100 µM,> 100 µM,> 100 µM,> 100 µM,,,,,,,,,,,
CC(C)c1ccccc1NC(=O)/C(Cl)=C1/Sc2ccccc2NC1=O,> 100,> 100,,,> 100,> 100 µM,,> 100 µM,49.6 µM,,,,,,,,,,,
COc1ccc(Nc2nc3ccccc3nc2-c2cccs2)cc1,> 100,> 100,> 100,,> 100,> 100 µM,> 100 µM,> 100 µM,> 100 µM,,,,,,,,,,,
CC1=C(C(=O)Nc2ccccc2C)C(/C=C/c2ccccc2)C(C(=O)Nc2ccccc2C)=C(C)N1,> 100,> 100,> 100,> 100 µM,> 100,> 100 µM,> 100 µM,> 100 µM,> 100 µM,,,,,,,,,,,
C[n+]1c2ccccc2cc2c(CNC(CCCN=C(N)N)C(=O)O)cccc21 (stereo not drawn),1.78,3.65,17.5,1.14 µM and 5.85 µM,27.4,7.63 µM and 35.8 µM,6.36 µM and 4.58 µM,0.846 µM and 1.47 µM,1.34 µM and 4.78 µM,,5.03,,,14.4,7.76,1.57,0.394,0.339,2.22,
CC(=O)[CH-]C(C)=O.[CH2-]C.[CH2-]C.[Tl+3],> 100,> 100,> 100,> 100 µM,> 100,> 100 µM,> 100 µM,> 100 µM,> 100 µM,> 100,> 100,,,> 100,> 100,> 100,> 100,> 100,> 100,> 100
O=C1C2=C(c3ccccc31)C(c1ccccc1Cl)N1C(=O)CCSC1=N2 (stereo not drawn),> 100,> 100,> 100,> 100 µM,> 100,> 100 µM,> 100 µM,> 100 µM,,,,,,,,,,,,
CC(=O)OC1COC(n2c(=S)n(-c3ccccc3)c(=O)c3cc(Br)ccc32)C(OC(C)=O)C1OC(C)=O (stereo not drawn),> 100,> 100,> 100,> 100 µM,> 100,> 100 µM,> 100 µM,> 100 µM,66.6 µM,,,,,,,,,,,
COc1cccc(/C=C2\CCC(C)(CN(C)C)C2=O)c1 (stereo not drawn),> 100,> 100,> 100,> 100 µM,> 100,> 100 µM,> 100 µM,> 100 µM,> 100 µM,,,,,,,,,,,
O=C(NC12CC3CC(CC(C3)C1)C2)C(=O)c1c[nH]c2ccc(Cl)cc12,,> 100,65.2,> 100 µM,> 100,> 100 µM,57.6 µM,> 100 µM,,,,,,,,,,,,
Cc1ccc(S(=O)(=O)N/N=C(\c2nc3ccc([N+](=O)[O-])cc3[nH]c2=O)C(O)c2ccccc2Cl)cc1 (stereo not drawn),> 100,> 100,> 100,> 100 µM,> 100,> 100 µM,> 100 µM,> 100 µM,,,,,,,,,,,,
CC(CC(=O)Nc1ccc(NC(=O)CC(C)N=NC(N)=S)cc1)N=NC(N)=S (stereo not drawn),,> 100,> 100,> 100 µM,> 100,> 100 µM,> 100 µM,> 100 µM,> 100 µM,,,,,,,,,,,
NC(=O)/C=C/C(=O)O,> 5000,> 5000,> 5000,> 5000 µM,> 5000,> 5000 µM,,> 5000 µM,> 5000 µM,,,,,,,,,,,
CCN(CC)CC(=O)N1CCc2c([nH]c3ccccc23)C1c1cccnc1 (stereo not drawn),> 100,> 100,> 100,> 100 µM,> 100,,> 100 µM,> 100 µM,,,,,,,,,,,,
O=C1C=C(O)c2[nH]c(=O)ccc2C1=O,> 100,> 100,> 100,> 100 µM,,> 100 µM,> 100 µM,> 100 µM,> 100 µM,,,,,,,,,,,
